Measurements as given in publication PMC2386552, “Toward the Assessment of Food Toxicity for Celiac Patients: Characterization of Monoclonal Antibodies to a Main Immunogenic Gluten Peptide” (PLoS ONE, 2008).

Assays:
G12 moAb = experiment: Indirect ELISA of C-LYTAG-peptide fusions (E. coli extracts) with moAb G12; type: binding; conditions: indirect ELISA of bacterial extracts containing the fusion peptides
Excerpt: (§1) To determine the epitope recognized by the G12 and A1 moAb within the 33-mer peptide, fusions of the C-LYTAG coding sequence of the pALEXb plasmid (Biomedal S.L., Sevilla, Spain) were constructed with coding sequences of hepta- and octapeptides comprising the complete sequence of the 33-mer peptide (Figure 3A). The resulting plasmids were introduced by transformation into the REG1 strain of Escherichia coli, allowing for over-expression of the encoded fusion proteins upon induction (Biomedal S.L., Sevilla, Spain). The over-expressed bacterial extracts were analyzed by indirect ELISA using the anti-33-mer A1 and G12 moAbs. Similarly, the anti-C-LYTAG 6B5L1 moAb (Biomedal, S.L., Sevilla, Spain) was used to establish that the designed protein was expressed intact in all cases. […]
(§2) A Maxisorp microtiter plate (Nunc, Roskilde, Denmark) was coated overnight at 4°C with 100 µL/well of the appropriate antigen (C-LYTAG-33-mer protein, gliadin, hordein, secalin, avenin, oryzein, zein or soluble protein extracts containing peptide fusions) serially diluted with 0.1 M of Na2CO3-NaHCO3 (pH 9.6). […] Absorbance at 450 nm was measured in the microplate reader UVM340 (Asys Hitech GmbH, Eugendorf, Austria).

A1 moAb = experiment: Indirect ELISA of C-LYTAG-peptide fusions (E. coli extracts) with moAb A1; type: binding; conditions: indirect ELISA of bacterial extracts containing the fusion peptides
Excerpt: as §1, §2

## PQPQLPY [Pro63-Tyr69, C-LYTAG fusion peptide PQPQLPY expressed in E. coli]
G12 moAb
  signal with G12 moAb: positive signal

## QLPYPQP [Gln66-Pro72, C-LYTAG fusion peptide QLPYPQP expressed in E. coli]
A1 moAb
  signal with A1 moAb: positive signal

## QPQLPYP [Gln64-Pro70, C-LYTAG fusion peptide QPQLPYP expressed in E. coli]
G12 moAb
  signal with G12 moAb: positive signal
